For 13 molecules, viability, T/C and IC50 results are on record in PubChem BioAssay AID2060887 (Molecular Pharmacology Branch, DTP, NCI, 2025).

“And” between values parts separate entries of the source, which are not always exact repeats. Equal entries are not always repeated.

This experiment concerns 782815-120-R-J1-PDC complex spheroid viability. Kind of experiment: Anticancer human tumor 782815-120-R-J1-PDC patient-derived colon adenocarcinoma cell line growth inhibition [RAS]. The settings on record: for viability, T/C: stronger effect = lower value. From the text:
RAS pathway inhibitors in Combinations in Complex Spheroids
A high-throughput screen of multi-cell type tumor spheroids was designed to identify active combinations of RAS pathway inhibitors and targeted small molecules. Complex spheroids include a stromal component modeled by human endothelial cells (HUVEC) and fibroblasts modeled by human mesenchymal stem cells (MSCs). The concentration ranges selected for each drug and investigational agent were based upon clinically achievable concentrations if the clinical Cmax of the agent was known.
Compounds. The drugs and investigational agents: abemaciclib (NSC768073), cobimetinib (NSC768068), divarasib (GDC6063, NSC841802), docetaxel (NSC628503), GDC-1971 (RLY-1971, NSC841576), gemcitabine (NSC613327), inavolisib (NSC800729), ipatasertib (NSC767898), KB-0742 (NSC834161), MRTX-1133 (NSC836407), osimertinib (NSC779217), RMC-4630 (NSC839698), RMC-6236 (NSC851965), RMC-6291 (NSC852671), Ro-3306 (NSC812927), sapanisertib (NSC764658), SN-38 (NSC673596), staurosporine (NSC755774), SY5609 (NSC837396), and tovorafenib (DAY101, NSC766906), were obtained from the National Cancer Institute (NCI) Developmental Therapeutics Program Chemical Repository. The FDA-approved anticancer drug set is available from the NCI Developmental Therapeutics Program. […] The stock solutions were prepared in dimethyl sulfoxide (DMSO, Sigma-Aldrich, St. Louis, MO, cat. D2650) at 800-fold the tested concentration and stored at -70 degrees C prior to their use. All drugs and investigational agents were tested over a range starting from a high concentration at or near the clinical Cmax and decreasing in half-log increments. If the clinical Cmax for an agent had not been determined, the highest concentration tested was 10 microM.
Cell Culture. All cells were maintained in an incubator at 37 degrees C and 5% CO2 with 95% humidity. The PDC lines were cultured according to standard operating procedures established by the NCI PDMR. All PDCs were thawed and cultured in Matrigel-coated flasks prepared with a working solution of 1X Ham's F-12 nutrient mix, without supplementation (Invitrogen, Waltham, MA, cat. 11765054), 100 U/mL penicillin-streptomycin (Invitrogen, cat. 15140122), and 2.5% Matrigel (Corning Inc., Corning, NY, cat. 354248) for the first three passages. The 362531-283-R-J2-PDC and 782815-120-R-J1-PDC lines were cultured in 6C/Colon 1B media, which includes advanced DMEM/F-12 (Thermo Fisher Scientific, cat. 12634028), 10 mM HEPES (Thermo Fisher Scientific, cat. 15630080), 1X GlutaMAX supplement (Thermo Fisher Scientific, cat. 35050061), 0.1 mg/mL primocin (InvivoGen, San Diego, CA, cat. ant-pm-2), 10% defined fetal bovine serum, heat inactivated (HyClone Laboratories Inc., Logan, UT, cat. SH30070.03HI), 50% L-WRN conditioned media (ATCC, cat. CRL-3276), 1.25 mM N-Acetyl-L-cysteine (Sigma-Aldrich, cat. A9165), 10 mM nicotinamide (Sigma-Aldrich, cat. N0636), 1X B-27 supplement (Thermo Fisher Scientific, cat. 17504044), 1X N-2 supplement (Thermo Fisher Scientific, cat. 17502048), 50 ng/mL human EGF (Thermo Fisher Scientific, cat. PHG0311), and 10 microM Y-27632 dihydrochloride (Tocris Bioscience, cat. 1254). The K12877-001-R-J1-PDC line was cultured in 6I media, which includes all 6C/Colon 1B media plus 10 ng/mL human FGF-10 (PeproTech, cat. 100-26), 1 ng/mL human FGF-2 (PeproTech, cat. 100-18B), 1 µM prostaglandin E2 (Tocris Bioscience, cat. 2296), […] hydrocortisone (Sigma-Aldrich, cat. H4001), and […] bovine insulin (Sigma-Aldrich, cat. I6634). The K86415-001-R-J1-PDC line was cultured in 6D media, which includes all 6C/Colon 1B media components minus the L-WRN conditioned media. The 485176-168-R4-J1-PDC was cultured in PANC media, which includes all 6C/Colon 1B media plus 100 ng/mL human FGF-10 (PeproTech, cat. 100-26), 500 nM SB-431542 (Selleckchem, cat. S1067), and 10 nM gastrin (Tocris Bioscience, cat. 3006). […]

Setting [1] is: compound alone, run of 07/15/2024.
[2] abbreviates: compound alone, run of 07/09/2024.
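Note: spheroids exposed to compounds for 7 days before reading.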

Take `C#Cc1c(F)ccc2cc(O)cc(-c3ncc4c(N5CC6CCC(C5)N6)nc(OCC56CCCN5CC(F)C6)nc4c3F)c12` (stereo not given): the viability, T/C (commonly the result in the treated group divided by that in the control group, in per cent) is 104% [middle of 8 runs] (compound 0.0316 µM); 103% [middle of 8 runs] (compound 0.1 µM); 103% [middle of 8 runs] (compound 0.316 µM); 97.9% [middle of 8 runs] (compound 1 µM); 101% [middle of 8 runs] (compound 3.16 µM); 95% [middle of 8 runs] (compound 10 µM). Under setting [1], the IC50 (usually the concentration that inhibits the measured activity by half) was above 10000 nM.
Consider `C=CC(=O)N1CCN(c2nc(OCC3CCCN3C)nc3c(F)c(-c4nc(N)cc(C)c4C(F)(F)F)c(Cl)cc23)C(C)C1` (stereo not given), for which the viability, T/C runs as follows: (compound 0.00316 µM) 99.4% [middle of 12 runs]; (compound 0.01 µM) 102% [middle of 12 runs]; (compound 0.0316 µM) 102% [middle of 12 runs]; (compound 0.1 µM) 99.2% [middle of 12 runs]; (compound 0.316 µM) 102% [middle of 12 runs]; (compound 1 µM) 96.7% [middle of 12 runs]. Moreover, the concentration for half-maximal inhibition (IC50) under setting [1] is above 1000 nM and the IC50 (curve of compound) is above 1000 nM.
With `C=CC(=O)Nc1cc(Nc2nccc(-c3cn(C)c4ccccc34)n2)c(OC)cc1N(C)CCN(C)C`, the viability, T/C reads like this: (compound 0.00316 µM) 93.8% and 93.6% (2×) and 98%; (compound 0.01 µM) 99.9% [middle of 4 runs]; (compound 0.0316 µM) 96.3% [middle of 4 runs]; (compound 0.1 µM) 94.3% [middle of 4 runs]; (compound 0.316 µM) 94.1% [middle of 4 runs]; (compound 1 µM) 91.1% [middle of 4 runs]. Also, where the note is “curve of compound”, the IC50 was above 1000 nM.
Consider `CC(C)NCC(C(=O)N1CCN(c2ncnc3c2C(C)CC3O)CC1)c1ccc(Cl)cc1` (stereo not given), for which the viability, T/C is, setting by setting: (compound 0.0316 µM) 106% [middle of 4 runs]; (compound 0.1 µM) 98.9% [middle of 4 runs]; (compound 0.316 µM) 104% (2×) and 101% and 91.7%; (compound 1 µM) 96% [middle of 4 runs]; (compound 3.16 µM) 101% [middle of 4 runs]; (compound 10 µM) 104% [middle of 4 runs]. Besides, where the note is “curve of compound”, the IC50 was above 10000 nM.
With `CC(C)n1nc(-c2ccc3oc(N)nc3c2)c2c(N)ncnc21`, the viability, T/C is 98.8% [middle of 4 runs] (compound 0.000316 µM); 97.7% [middle of 4 runs] (compound 0.001 µM); 93.8% [middle of 4 runs] (compound 0.00316 µM); 90.3% [middle of 4 runs] (compound 0.01 µM); 95.5% [middle of 4 runs] (compound 0.0316 µM); 83.7% [middle of 4 runs] (compound 0.1 µM). For the same molecule, where the note is “curve of compound”, the IC50 was above 100 nM.
`CC(Nc1ccc2c(c1)OCCn1cc(N3C(=O)OCC3C(F)F)nc1-2)C(N)=O` (stereo not given): the viability, T/C is 102% (2×) and 103% and 93.2% (compound 0.0316 µM); 97.5% [middle of 4 runs] (compound 0.1 µM); 90.9% [middle of 4 runs] (compound 0.316 µM); 87.2% [middle of 4 runs] (compound 1 µM); 100% [middle of 4 runs] (compound 3.16 µM); 93% [middle of 4 runs] (compound 10 µM). In addition, under “curve of compound”, the IC50 was above 10000 nM.
As to `CC1(C)CCC(Nc2ncc(C(F)(F)F)c(-c3c[nH]c4c(P(C)(C)=O)c(C#N)ccc34)n2)CN1` (stereo not given), the viability, T/C was 107% [middle of 4 runs] (compound 0.000949 µM); 85% [middle of 4 runs] (compound 0.003 µM); 65.3% [middle of 4 runs] (compound 0.03 µM); 59.4% [middle of 4 runs] (compound 0.0949 µM); 57.8% [middle of 4 runs] (compound 0.3 µM). For the setting “curve of compound”, the IC50 was > 300 nM and 76.6 nM and 223 nM.
`CCN1CCN(Cc2ccc(Nc3ncc(F)c(-c4cc(F)c5nc(C)n(C(C)C)c5c4)n3)nc2)CC1`: the viability, T/C was 102% [middle of 4 runs] (compound 0.00316 µM); 99.6% [middle of 4 runs] (compound 0.01 µM); 93.5% and 96.4% and 101% (2×) (compound 0.0316 µM); 100% [middle of 4 runs] (compound 0.1 µM); 113% [middle of 4 runs] (compound 0.316 µM); 125% [middle of 4 runs] (compound 1 µM). The IC50 (curve of compound) was above 1000 nM.
Consider `CCc1c2c(nc3ccc(O)cc13)-c1cc3c(c(=O)n1C2)COC(=O)[C@]3(O)CC`, for which the viability, T/C is 100% [middle of 4 runs] (compound 0.000949 µM); 59.1% [middle of 4 runs] (compound 0.003 µM); 20.2% [middle of 4 runs] (compound 0.00949 µM); 9.92% [middle of 4 runs] (compound 0.03 µM); 3.66% [middle of 4 runs] (compound 0.0949 µM); 1.71% [middle of 4 runs] (compound 0.3 µM). In addition, for the setting “curve of compound”, the IC50 was 4.02 nM [middle of 4 runs].
`CCn1c(-c2cc(N3CCN(C)CC3)cnc2C(C)OC)c2c3cc(ccc31)-c1csc(n1)CC(NC(=O)C1CC1C)C(=O)N1CCCC(N1)C(=O)OCC(C)(C)C2` (stereo not given): the viability, T/C is 84.7% [middle of 8 runs] (compound 0.000949 µM); 60.1% [middle of 8 runs] (compound 0.003 µM); 35.1% [middle of 8 runs] (compound 0.00949 µM); 20.7% [middle of 8 runs] (compound 0.03 µM); 16.4% [middle of 8 runs] (compound 0.0949 µM); 14.7% [middle of 7 runs] (compound 0.3 µM). The concentration for half-maximal inhibition (IC50) under setting [2] is 4.66 nM [middle of 8 runs].
Turning to `CCn1c(-c2cccnc2C(C)OC)c2c3cc(ccc31)N1CCOC(CC(NC(=O)C(C(C)C)N(C)C(=O)C3(F)CCN(C(=O)C#CC(C)(C)N(C)C)CC3)C(=O)N3CCCC(N3)C(=O)OCC(C)(C)C2)C1` (stereo not given), the viability, T/C is 95.4% [middle of 8 runs] (compound 0.000949 µM); 100% [middle of 8 runs] (compound 0.003 µM); 95.8% [middle of 8 runs] (compound 0.00949 µM); 98.5% [middle of 8 runs] (compound 0.03 µM); 96.5% [middle of 8 runs] (compound 0.0949 µM); 89.1% [middle of 8 runs] (compound 0.3 µM). In addition, the IC50 under setting [2] is above 300 nM.
`Nc1ccn(C2OC(CO)C(O)C2(F)F)c(=O)n1` (stereo not given): the viability, T/C reads like this: (compound 0.00316 µM) 91.4% [middle of 4 runs]; (compound 0.01 µM) 71.8% [middle of 4 runs]; (compound 0.1 µM) 40.8% [middle of 4 runs]; (compound 0.316 µM) 27% [middle of 4 runs]; (compound 1 µM) 25.6% [middle of 4 runs]. The IC50 (curve of compound) was 60.1 nM [middle of 4 runs].
Consider `O=C(c1ccc(F)c(F)c1Nc1ccc(I)cc1F)N1CC(O)([C@@H]2CCCCN2)C1`, for which the viability, T/C is, setting by setting: (compound 0.00316 µM) 91.5% [middle of 4 runs]; (compound 0.01 µM) 82.9% [middle of 4 runs]; (compound 0.0316 µM) 66.7% [middle of 4 runs]; (compound 0.1 µM) 38.3% [middle of 4 runs]; (compound 0.316 µM) 19.9% [middle of 4 runs]; (compound 1 µM) 3.13% [middle of 4 runs]. Where the note is “curve of compound”, the IC50 was 66 nM [middle of 4 runs].
